Reference: patent US10874743B2, “IRAK degraders and uses thereof” (Kymera Therapeutics, Inc., priority 2017, dated 2020)

How the values were obtained:
[1] = target: T1, IRAK4 (Homo sapiens, UniProt Q9NWZ3); assay: OCI-LY-10 degradation assay (western blot, % IRAK4 degraded after 4 hours); assay type: cell-based; set-up: endogenous in cells; host or cells: OCI-LY10; conditions: OCI-LY10 cells, 4 hours; for OCI-LY10 % IRAK4 Degradation (0.01 uM): 0.01 uM compound; for OCI-LY10 % IRAK4 Degradation (0.1 uM): 0.1 uM compound; for OCI-LY10 % IRAK4 Degradation (1 uM): 1 uM compound
T1 sequence (Q9NWZ3 1-460): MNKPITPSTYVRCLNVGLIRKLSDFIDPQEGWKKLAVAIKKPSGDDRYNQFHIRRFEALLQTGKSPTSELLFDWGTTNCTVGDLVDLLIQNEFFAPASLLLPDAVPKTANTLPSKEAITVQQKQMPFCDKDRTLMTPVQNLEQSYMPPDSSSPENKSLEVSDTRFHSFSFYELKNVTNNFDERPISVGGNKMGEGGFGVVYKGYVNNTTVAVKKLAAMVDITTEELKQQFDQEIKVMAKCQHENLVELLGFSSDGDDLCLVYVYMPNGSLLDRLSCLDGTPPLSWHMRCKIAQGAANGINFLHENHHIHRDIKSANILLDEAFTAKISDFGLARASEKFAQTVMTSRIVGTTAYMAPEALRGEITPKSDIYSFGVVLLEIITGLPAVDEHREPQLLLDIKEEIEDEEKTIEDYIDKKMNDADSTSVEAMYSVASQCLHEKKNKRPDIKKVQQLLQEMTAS
Summary of the method: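 OCI-LY10 cells (RPMI-1640, 20% FBS, 55 μM 2-ME) treated with compound at 0.003-10 μM final for 4 h at 37° C, then lysed in RIPA buffer. IRAK4 level read by fluorescent western blot (20-25 μg protein) and binned as % degraded: A >50%, B >20-50%, C <20%.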

[2] = target: T1, IRAK4; assay: OCI-LY-10 MSD assay for IRAK4 DC50; assay type: cell-based; set-up: endogenous in cells; host or cells: OCI-LY10; conditions: OCI-LY10 cells, 4 hr incubation, concentration required to degrade 50% of protein
Summary of the method: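 OCI-Ly10 cells were exposed to compound for 4 hr across a 3-fold, 8-point dilution series. Lysates were made in RIPA buffer, and IRAK4 remaining was measured by MSD sandwich immunoassay with anti-IRAK4 capture and detection antibodies. DC50 was taken from a four-parameter logistic fit.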

| Structure (SMILES) | OCI-LY10 % IRAK4 Degradation (0.01 uM) [1] | OCI-LY10 % IRAK4 Degradation (0.1 uM) [1] | OCI-LY10 % IRAK4 Degradation (1 uM) [1] | DC50 [2] [nM] |
| --- | --- | --- | --- | --- |
| O=C1CCC(N2C(=O)c3ccc(N4CCN(CCOCCNC(=O)c5ccc(-n6cc(NC(=O)c7coc(-c8ccnc(NCC9CC9)c8)n7)c(C(F)F)n6)cc5)CC4)cc3C2=O)C(=O)N1 (stereo not shown) [I-277] | C (<20% degradation) | A (>50% degradation) | A (>50% degradation) | 50 to 100 |
| O=C1CCC(n2c(=O)oc3c(CCCOCCOCCNC(=O)c4ccc(-n5cc(NC(=O)c6coc(-c7ccnc(NCC8CC8)c7)n6)c(C(F)F)n5)cc4)cccc32)C(=O)N1 (stereo not shown) [I-265] | B (>20-50% degradation) | A (>50% degradation) | A (>50% degradation) | < 50 |
| NC(=O)c1nn(-c2ccc(CNCCOCCCc3cccc4c3C(=O)N(C3CCC(=O)NC3=O)C4=O)cc2)cc1NC(=O)c1coc(-c2ccnc(NCC(F)(F)F)c2)n1 (stereo not shown) [I-320] | C (<20% degradation) | B (>20-50% degradation) | B (>20-50% degradation) | > 1000 |
| O=C1CCC(N2C(=O)c3cccc(NC4CCN(CCOCCOCCOCCNC(=O)c5ccc(-n6cc(NC(=O)c7coc(-c8ccnc(NCC9CC9)c8)n7)c(C(F)F)n6)cc5)CC4)c3C2=O)C(=O)N1 (stereo not shown) [I-269] | C (<20% degradation) | B (>20-50% degradation) | A (>50% degradation) | < 50 |
| O=C1CCC(N2C(=O)c3cccc(NC4CCN(CCOCCOCCOCCNCc5ccc(-n6cc(NC(=O)c7coc(-c8ccnc(NCC9CC9)c8)n7)c(C(F)F)n6)cc5)CC4)c3C2=O)C(=O)N1 (stereo not shown) [I-386] | C (<20% degradation) | B (>20-50% degradation) | A (>50% degradation) | 100 to 500 |
| Cn1c(=O)n(C2CCC(=O)NC2=O)c2ccc(CCCOCCOCCNC(=O)c3ccc(-n4cc(NC(=O)c5coc(-c6ccnc(NCC7CC7)c6)n5)c(C(F)F)n4)cc3)cc21 (stereo not shown) [I-252] | B (>20-50% degradation) | A (>50% degradation) | A (>50% degradation) | < 50 |
| NC(=O)c1nn(-c2ccc(C(=O)NCCOCCOCCCc3cccc4c3oc(=O)n4C3CCC(=O)NC3=O)cc2)cc1NC(=O)c1coc(-c2ccnc(NCC(F)(F)F)c2)n1 (stereo not shown) [I-266] | C (<20% degradation) | A (>50% degradation) | A (>50% degradation) | < 50 |
| NC(=O)c1nn(-c2ccc(CNCCOCCOCCCc3cccc4c3C(=O)N(C3CCC(=O)NC3=O)C4=O)cc2)cc1NC(=O)c1coc(-c2ccnc(NCC(F)(F)F)c2)n1 (stereo not shown) [I-321] | B (>20-50% degradation) | A (>50% degradation) | A (>50% degradation) | < 50 |
| O=C1CCC(N2C(=O)c3cccc(OCc4cn(CCOCCOCCNCc5ccc(-n6cc(NC(=O)c7coc(-c8ccnc(NCC9CC9)c8)n7)c(C(F)F)n6)cc5)nn4)c3C2=O)C(=O)N1 (stereo not shown) [I-344] | C (<20% degradation) | A (>50% degradation) | A (>50% degradation) | 50 to 100 |
| O=C1CCC(N2Cc3cc(NC4CCN(CCOCCOCCNCc5ccc(-n6cc(NC(=O)c7coc(-c8ccnc(NCC9CC9)c8)n7)c(C(F)F)n6)cc5)CC4)ccc3C2=O)C(=O)N1 (stereo not shown) [I-387] | C (<20% degradation) | C (<20% degradation) | B (>20-50% degradation) | > 1000 |
| NC(=O)c1nn(-c2ccc(C(=O)NCC3CCCCN3CCOCCNc3cccc4c3C(=O)N(C3CCC(=O)NC3=O)C4=O)cc2)cc1NC(=O)c1coc(-c2ccnc(NCC(F)(F)F)c2)n1 (stereo not shown) [I-219] | A (>50% degradation) | A (>50% degradation) | A (>50% degradation) | < 50 |
| CN(CCOCCOCCCc1ccc2c(c1)C(=O)N(C1CCC(=O)NC1=O)C2=O)C(=O)c1ccc(-n2cc(NC(=O)c3coc(-c4ccncc4)n3)c(C(N)=O)n2)cc1 (stereo not shown) [I-227] | B (>20-50% degradation) | A (>50% degradation) | A (>50% degradation) | < 50 |
| NC(=O)c1nn(-c2ccc(C(=O)NCCOCCOCCNc3cccc4c3C(=O)N(C3CCC(=O)NC3=O)C4=O)cc2)cc1NC(=O)c1coc(-c2ccnc(N)c2)n1 (stereo not shown) [I-427] | B (>20-50% degradation) | A (>50% degradation) | A (>50% degradation) | < 50 |
| O=C1CCC(N2C(=O)c3cccc(CCCCCN4CCC(n5cc(NC(=O)c6coc(-c7ccnc(NCC8CC8)c7)n6)c(C(F)F)n5)CC4)c3C2=O)C(=O)N1 (stereo not shown) [I-258] | C (<20% degradation) | B (>20-50% degradation) | C (<20% degradation) | > 1000 |
| O=C1CCC(N2C(=O)c3ccc(NC4CCN(CCOCCOCCOCCNCc5ccc(-n6cc(NC(=O)c7coc(-c8ccnc(NCC9CC9)c8)n7)c(C(F)F)n6)cc5)CC4)cc3C2=O)C(=O)N1 (stereo not shown) [I-389] | C (<20% degradation) | C (<20% degradation) | A (>50% degradation) | 500 to 1000 |
| Cn1cc(NC(=O)c2coc(-c3ccnc(NCC(F)(F)F)c3)n2)c(C(=O)NCCCOCC(C)(C)COCCCc2cccc3c2n(C)c(=O)n3C2CCC(=O)NC2=O)n1 (stereo not shown) [I-297] | C (<20% degradation) | C (<20% degradation) | C (<20% degradation) | > 1000 |
| O=C1CCC(N2C(=O)c3cccc(NCCOCCN4CCO[C@H](CNC(=O)c5ccc(-n6cc(NC(=O)c7coc(-c8ccnc(NCC(F)(F)F)c8)n7)c(C(F)F)n6)cc5)C4)c3C2=O)C(=O)N1 (stereo partly shown) [I-281] | C (<20% degradation) | A (>50% degradation) | A (>50% degradation) | 50 to 100 |
| O=C1CCC(N2Cc3cc(N4CCN(CCOCCOCCNCc5ccc(-n6cc(NC(=O)c7coc(-c8ccnc(NCC9CC9)c8)n7)c(C(F)F)n6)cc5)CC4)ccc3C2=O)C(=O)N1 (stereo not shown) [I-392] | B (>20-50% degradation) | A (>50% degradation) | A (>50% degradation) | 50 to 100 |
| O=C1CCC(N2C(=O)c3cccc(NCCOCCN4CC5(CN(CCOCCNCc6ccc(-n7cc(NC(=O)c8coc(-c9ccnc(NCC%10CC%10)c9)n8)c(C(F)F)n7)cc6)C5)C4)c3C2=O)C(=O)N1 (stereo not shown) [I-350] | C (<20% degradation) | C (<20% degradation) | B (>20-50% degradation) | > 1000 |
| NC(=O)c1nn(-c2ccc(C(=O)NCCOCCOCCN3CCC(Nc4cccc5c4C(=O)N(C4CCC(=O)NC4=O)C5=O)CC3)cc2)cc1NC(=O)c1coc(-c2ccnc(NCC3CC3)c2)n1 (stereo not shown) [I-290] | B (>20-50% degradation) | B (>20-50% degradation) | B (>20-50% degradation) | > 1000 |
| O=C1CCC(N2C(=O)c3ccc(CCCNCc4ccc(-n5cc(NC(=O)c6coc(-c7ccnc(NCC8CC8)c7)n6)c(C(F)F)n5)cc4)cc3C2=O)C(=O)N1 (stereo not shown) [I-371] | C (<20% degradation) | C (<20% degradation) | B (>20-50% degradation) | > 1000 |
| CN(CCOCCOCCCc1ccc2c(c1)C(=O)N(C1CCC(=O)NC1=O)C2=O)Cc1ccc(-n2cc(NC(=O)c3coc(-c4ccnc(NCC5CC5)c4)n3)c(C(N)=O)n2)cc1 (stereo not shown) [I-308] | B (>20-50% degradation) | A (>50% degradation) | A (>50% degradation) | 50 to 100 |
